According to US11958863B2, “Binding competitors for use in macrophilin-binding pharmaceutical assays and methods of use thereof” (Siemens Healthcare Diagnostics Inc., priority 2018, dated 2024):

Key:
[1] = system: endogenous binding proteins (immunophilins such as FKBPs); assay: Everolimus (EVRO) DIMENSION immunoassay standard curves with displacers; conditions: whole blood sample
Procedure: (§1) The automated DIMENSION® assay system (Siemens Healthcare Diagnostics Inc., Tarrytown, NY), the everolimus (EVRO) assay method uses an immunoassay technique in which free and everolimus-bound antibody-enzyme conjugate is separated using magnetic particles. The assay antibody used for this assay is a mouse monoclonal antibody (cell line: 155-M1). The assay was performed using a method specific FLEX® reagent cartridge (Siemens Healthcare Diagnostics Inc., Tarrytown, NY). The FLEX® reagent cartridge contains a pretreatment reagent, antibody-β-galactosidase conjugate, everolimus analog immobilized on chromium dioxide particles, chlorophenol red β-d-galactopyranoside (CPRG) substrate, and diluent to hydrate the tablets. To perform the EVRO assay, a sample cup (or SSC) containing the whole blood sample to be analyzed and an EVRO FLEX® reagent cartridge were placed appropriately on the DIMENSION® system. The DIMENSION® system mixed and lysed the whole blood sample in the presence of the pretreatment reagent that contains detergents and a displacer (FK506 or FK506 analogs as described previously). This reagent contains a displacer which acts to displace everolimus in the sample from endogenous binding proteins (immunophilins such as FKBPs, etc.). The lysed sample was then mixed with the antibody enzyme conjugate. The everolimus present in the sample was bound by the everolimus antibody. Magnetic particles coated with everolimus analog were added to bind free (unbound) antibody-enzyme conjugate. The reaction mixture was then separated magnetically. Following separation, the supernatant containing the everolimus-antibody-enzyme complex was transferred to a cuvette and mixed with the substrate, chlorophenol red β-d-galactopyranoside (CPRG). β-galactosidase catalyzes the hydrolysis of CPRG to produce chlorophenol red (CPR) that absorbs light maximally at 577 nm. The change in absorbance at 577 nm due to the formation of CPR is directly proportional to the amount of everolimus in the patient's sample and is measured using a bichromatic (577 nm, 700 nm) rate technique.
The assay was conducted in the absence of any displacer as well as in the presence of the following displacers: tacrolimus (FK506, as represented by Formula I), FK506 Ester (disclosed in U.S. Pat. No. 7,186,518), FK506 C24 succinate (as represented by Formula VII), Reduced FK506 (as represented by Formula IV), FK506 22-oxime-32-isocyanatoacetatethyl ester (as represented by Formula VI), and FK506 oxime (as represented by Formula V).
The ability of the FK analogs to displace everolimus drug in the everolimus assay is a function of their FKBP (macrophilin) binding. So the curve size after adding the displacer indicates the ability of their FKBP binding: the larger the curve size, the better the binding.

[2] = system: everolimus assay antibody (155-M1 Clone); assay: Cross-reactivity with everolimus assay antibody; assay type: binding, mouse; conditions: for % Cross-Reactivity: everolimus assay antibody 155-M1 clone
Procedure: as §1
(§2) Table 2 indicates the cross-reactivities detected for the various displacers of the present disclosure with the everolimus assay antibody (155-M1), while Table 3 indicates the cross-reactivities detected for the various displacers of the present disclosure with the tacrolimus assay antibody (1E2 clone).

[3] = system: tacrolimus assay antibody (1E2 Clone); assay: Cross-reactivity with tacrolimus assay antibody; assay type: binding; conditions: for Cross-reactivity with tacrolimus assay antibody (in words): 1E2 clone, compared with the '518 patent analog; for % Cross-Reactivity: tacrolimus assay antibody 1E2 clone
Procedure: as §2
Next, the cross-reactivity of each of the analogs used in the everolimus assay was tested with the antibody used in the tacrolimus assay (Table 3). While efforts may be made to minimize reagent carryover from the everolimus assay to the tacrolimus assay, an automated instrument may run both everolimus and tacrolimus (or sirolimus) assays simultaneously. Therefore, due to the use of a large amount of displacer (tacrolimus analogs) present in the everolimus assay, the displacer could be carried into the tacrolimus assay, and this would cause a falsely elevated signal in the tacrolimus assay if cross-reaction were observed.

Row | Compound | Everolimus standard curve signal with displacer ([1]; BV 0 ng/mL everolimus) | Everolimus standard curve signal with displacer ([1]; BV 5.5 ng/mL everolimus) | Everolimus standard curve signal with displacer ([1]; BV 11.2 ng/mL everolimus) | Everolimus standard curve signal with displacer ([1]; BV 21.9 ng/mL everolimus) | Everolimus standard curve signal with displacer ([1]; BV 34.3 ng/mL everolimus) | % Cross-Reactivity [2] [%] | Cross-reactivity with tacrolimus assay antibody (in words) [3] | % Cross-Reactivity [3] [%] | Cross-reactivity with everolimus assay antibody (in words) ([2]; 155-M1 clone)
1 | C=CC[C@@H]1/C=C(\C)C[C@H](C)C[C@H](OC)[C@H]2O[C@@](O)(C(=O)C(=O)N3CCCC[C@H]3C(=O)O[C@H](/C(C)=C/[C@@H]3CC[C@@H](O)[C@H](OC)C3)[C@H](C)[C@@H](OC(=O)CCC(=O)O)CC1=O)[C@H](C)C[C@@H]2OC [24-Succinate FK506, FK506 C24 succinate] | 16 | 71 | 108 | 145 | 157 | 0.01 | much lower cross-reactivities | 13.3 | 
2 | CCC[C@@H]1CC(C)C[C@H](C)C[C@H](OC)[C@H]2O[C@@](O)(C(=O)C(=O)N3CCCC[C@H]3C(=O)O[C@H](C(C)C[C@@H]3CC[C@@H](OC(=O)NCC(=O)OCC)[C@H](OC)C3)[C@H](C)[C@@H](O)CC1=NOCC(=O)O)[C@H](C)C[C@@H]2OC (stereo partly drawn) [FK-506-1] | 18 | 68 | 102 | 140 | 154 | 0.02 | much lower cross-reactivities | 1.5 | 
3 | C=CC[C@@H]1/C=C(\C)C[C@H](C)C[C@H](OC)[C@H]2O[C@@](O)(C(=O)C(=O)N3CCCC[C@H]3C(=O)O[C@H](/C(C)=C/[C@@H]3CC[C@@H](O)[C@H](OC)C3)[C@H](C)[C@@H](O)CC1=O)[C@H](C)C[C@@H]2OC [FK506, Tacrolimus, reference compound] | 17 | 67 | 104 | 143 | 156 | 0.01 |  | 100 | substantially no cross-reactivity
